Reference: patent US20020193425A1, “Cancer chemopreventative compounds and compositions and methods of treating cancers” (priority 2001, published 2002)
In brackets after ≈: the same amount, converted by molar mass.

Tests used:
BV173 = assay: Membrane phenotype, cell surface antigen by flow cytometry; type: cell-based; conditions: 4-day protocol
Experimental: (§1) Cell lines were tested using a 4-day incubation protocol, unless otherwise specified.
(§2) 3) Determination of cell surface antigen by flow cytometry. Cells (10^6) were washed with PBS and then incubated for 30 min at room temperature with respective monoclonal antibodies, washed with 20 volumes of diluent (PBS with 0.1% sodium azide and 1% BSA), and resuspended in 0.5 ml of fresh diluent for evaluation. Necrotic cells were excluded from the analysis by propidium iodide (PI) staining. The following mAbs (Sigma, St. Louis, Mo.) were used to assess the maturation level of myeloid cell lines: antiCD15 (Leu M1), antiCD-11b (OKM1), antiCD14 and antiCD13. The following mAbs (Sigma, St. Louis, Mo.) were used to assess the maturation level of lymphocytic cell lines: antiCD20, antiHLA-DR and antikappa light chain.
(§3) Cells were induced to differentiate with the indicated concentrations of brusatol using a 4-day protocol and then analyzed for membrane markers of differentiation as described under “Materials and methods”. Results are expressed as the specific mean fluorescence intensity (ratio of antigen antibody flourescence over isotype antibody fluorescence), and represents the mean of two independent studies.

NB4 cells = assay: as above; type: cell-based; conditions: Brusatol 10 ng/ml, 4-day protocol
Experimental: as §1, §2, §3

K562 cells = assay: as above; type: cell-based; conditions: Brusatol 25 ng/ml, 4-day protocol
Experimental: as §1, §2, §3

RS4;11 cells = assay: as above; type: cell-based; conditions: Brusatol 25 ng/ml, 4-day protocol
Experimental: as §1, §2, §3

Kasumi-1 = assay: as above; type: cell-based; conditions: 4-day protocol
Experimental: as §1, §2, §3

U937 cells = assay: as above; type: cell-based; conditions: Brusatol 12.5 ng/ml, 4-day protocol
Experimental: as §1, §2, §3

HL-60 [1] = assay: Cytotoxicity, viability by Trypan blue exclusion; conditions: four days
Experimental: (§4) HL-60, K562, U937, Reh and Daudi cells were obtained from the American Type Culture Collection (Rockville, Md.). Kasumi-1, NB4, BV173, SUPB13, and RS4;11 cells were provided by the Section of Hematology/Oncology, University of Illinois College of Medicine, Chicago, Ill. All cell lines were maintained in suspension culture using RPMI 1640 medium supplemented with 10% heat-inactivated fetal bovine serum, 100 units of penicillin/ml and 100 μg of streptomycin/ml at 37° C. in a humidified atmosphere of 5% CO2 in air. All cells were routinely tested for mycoplasma contamination.
(§5) Cellular viability was monitored by Trypan blue exclusion. Inhibition of [3H]thymidine incorporation into DNA was determined to assess the level of cell proliferation as well as DNA synthesis inhibition. […] The filters were counted using a Microbeta™ liquid scintillation counter (Wallac, Turku, Finland) with scintillation fluid. Finally, the percentage of [3H]thymidine incorporation per 10^6 cells was calculated by dividing the dpm of sample-treated cells by the dpm of DMSO-treated cells.
(§6) ^aViability was determined by Trypan blue exclusion in duplicate samples. […] Results are expressed as median inhibitory cell concentrations of two independent experiments (±standard deviations).

[2] = Cytotoxicity, viability by Trypan blue exclusion; conditions: human, HL-60 cells, Cytotoxicity (IC50, ng/ml), four days
Experimental: as §4, §5, §6

HL-60 [3] = assay: NBT-reduction differentiation assay, leukemic panel; type: cell-based, human; conditions: 4 days
Experimental: as §1
2) NBT/NSE/SE. Evaluation of NBT reduction was used to assess the ability of sample-treated cells to produce superoxide when challenged with TPA. A 1:1 (v/v) mixture of a cell suspension (10^6 cells) and TPA/NBT solution (2 mg/ml NBT and 1 μg/ml TPA in phosphate buffer saline (PBS)) was incubated for 1 h at 37° C. Then, cells were smeared on glass slides, and counterstained with 0.3% (w/v) safranin O in methanol. Positive cells reduce NBT yielding intracellular black-blue formazan deposits. NSE/SE are monocytic/granulocytic esterases that can be visualized by cytochemical staining using commercially available kits (α-Naphthyl Acetate Esterase and Naphthol As-D Chloroacetate Esterase kits, Sigma Chemical Co., St. Louis, Mo.). Positive-stained cells were quantified by microscopic examination of >200 cells. Results were expressed as a percentage of positive cells.
Concentration-dependent effect of brusatol on: (a) NBT-reduction (monocyte/granulocyte marker) of HL-60, K562, NB4, U937, and BV173 and (b) NSE expression (monocyte marker) in K562, Kasumi-1, NB4, and BV173 cells, respectively. Data points are the mean of duplicate samples.

[4] = Cytotoxicity, viability by Trypan blue exclusion; conditions: human
Experimental: Human blood (20 ml) was collected in heparinized sterile tubes and white blood cells were separated using Ficoll reagent (8 ml/5 ml blood diluted in 15 ml Hank's buffered solution). After centrifugation at low speed (1500 rpm) for 30 min, the white coat was removed and washed 3-times with Hank's buffered solution. The cell pellet was resuspended in RPMI 1640 medium supplemented with 10% FBS. This preparation contained >90% lymphocytes and <5% monocytes, as determined by Wright-Giemsa staining.
Cellular viability was monitored by Trypan blue exclusion.
as §6

HL-60 cells = assay: In vivo hollow fiber test
Experimental: As a preliminary test of in vivo efficacy, a hollow fiber study was performed. The in vivo hollow fiber test was performed using literature procedures with some modifications (see M. G. Hollingshead et al., Life Sic., 57, pages 131-141 (1995)). HL-60 cells were cultured in RPMI 1640 medium and collected by centrifugation and resuspended in conditioned medium at a concentration of 2.5×10^6 cells/ml. Fibers filled with cells were incubated in 6-well plates overnight at 37° C. in a 5% CO2 atmosphere. Female athymic NCr nu/nu mice at 5-6 weeks of age were obtained from Frederick Cancer Research Facility. Each mouse hosted up to 6 fibers, which were cultured in two physiologic compartments. For intraperitoneal implants, a small incision was made through the skin and musculature of the dorsal abdominal wall, the fiber samples were inserted into the peritoneal cavity in a craniocaudal direction, and the incision was closed with skin staples. For subcutaneous implants, a small skin incision was made at the nape of the neck to allow insertion of an 11-gauge tumor implant trocar. The trocar, containing the hollow fiber samples, was inserted caudally through the subcutaneous tissues and fibers were deposited during withdrawal of the trocar. The incision was closed with a skin staple.
In preliminary studies, cell growth was assessed with fibers containing various cell densities. […] For treatment protocols, brusatol was dissolved in PBS. Mice were randomized into 7 groups: PBS vehicle control group (6 mice per group); 0.25, 0.5, 1.25, 2.5, 5, 12.5 mg/kg of brusatol (3 mice per group). Test compound brusatol was administered once daily by intraperitoneal injection from day 3-6 after implantation. Body weights were measured daily.
On day 7, mice were sacrificed and fibers were retrieved. […] Aliquots (150 μl) of extracted MTT formazan were transferred to Individual wells of 96-well plates and assessed for optical density at a wavelength of 540 nm. The effect of the treatment regimen was determined by the net growth percentage of the cells relative to change in […].

COC(=O)[C@@]12OC[C@]34[C@H]([C@@H](O)[C@@H]1O)[C@@]1(C)CC(=O)C(O)=C(C)[C@@H]1C[C@H]3OC(=O)[C@H](OC(=O)C=C(C)C)[C@@H]24 [compound 1, brusatol]
membrane markers of differentiation, change between control and treated cells (BV173): did not show any changes
CD11b, specific mean fluorescence intensity (NB4 cells): 1.2 ± 0.5
CD13, specific mean fluorescence intensity (NB4 cells): 156.1 ± 54.3
CD14, specific mean fluorescence intensity (NB4 cells): 1.3
CD15, specific mean fluorescence intensity (NB4 cells): 18.5 ± 0.4
CD11b, specific mean fluorescence intensity (K562 cells): 1.0 ± 0.1
CD13, specific mean fluorescence intensity (K562 cells): 1.4 ± 0.2
CD14, specific mean fluorescence intensity (K562 cells): 1.0
CD15, specific mean fluorescence intensity (K562 cells): 4.6 ± 1.1
CD11b, specific mean fluorescence intensity (RS4;11 cells): 1.2 ± 0.1
CD13, specific mean fluorescence intensity (RS4;11 cells): 1.3 ± 0.2
CD15, specific mean fluorescence intensity (RS4;11 cells): 151.9 ± 42.1
membrane markers of differentiation, change between control and treated cells (Kasumi-1): did not show any changes
CD11b, specific mean fluorescence intensity (U937 cells): 2.5 ± 0.2
CD13, specific mean fluorescence intensity (U937 cells): 55.7 ± 1.1
CD14, specific mean fluorescence intensity (U937 cells): 9.6
CD15, specific mean fluorescence intensity (U937 cells): 28.5 ± 4.3
Cytotoxicity (IC50, ng/ml) (HL-60 [1]): 50 ± 0.9 ng/mL
IC50 at 4 days [2]: 0.05 to 0.1 µg/mL (≈ 0.0961 to 0.192 µM)
NBT-reduction, peak induction (HL-60 [3]): 75%
viability at 3 days, 100 ng/ml ([4]; peripheral blood lymphocytes stimulated with concanavalin A): ~90%
IC50 at 3 days ([4]; peripheral human lymphocytes): > 0.1 µg/mL
inhibition at s.c. site (HL-60 cells; HL-60 hollow fibers, 5 mg/kg): 80.8%
inhibitory percentage at s.c. site (HL-60 cells; HL-60 hollow fibers, doses from 0.25 mg/kg, below 5 mg/kg): around 25%
lethality (HL-60 cells; mice, 12.5 mg/kg): lethal
